Results from patent publication US20230277603A1, “VEILLONELLA PARVULA STRAIN AS AN ORAL THERAPY FOR NEUROINFLAMMATORY DISEASES” (Evelo Biosciences, Inc., priority 2020, published 2023).

System: relapse-remitting EAE model induced with PLP139-151 peptide in SJL mice
Experiment: SJL EAE model, therapeutic treatment (Example 3), clinical results
Assay type: in vivo
Conditions: for MMS ± SD: Day 0-42; for MMS ± SD / Incidence of relapse (%) / MMS of relapse period ± SD (Days 18-42) / End % body weight ± SD / End score ± SD: PO QD day ~11 - day 42; for MMS until Day 17 ± SD: acute phase, PO QD from day ~11; for End % body weight ± SD / End score ± SD: end of study
Method: The SJL EAE model is a Th17/Th1-mediated mouse model of relapsing-remitting neuroinflammatory disease that is induced via immunization with proteolipid protein (PLP), a major protein constituent of CNS myelin. Disease pathology is due to infiltration of immune cells in the CNS leading to decreased motor function and paralysis. Briefly, in this model mice are injected subcutaneously with an emulsion of PLP-peptide plus CFA and intraperitoneally with pertussis toxin on day 0. Acute neuroinflammatory disease develops between day 10 to day 16, and the relapsing-remitting disease phase occurs from day 20 to day 45. Mice are dosed daily from the day of sensitization through the end of the study by oral gavage. In a therapeutic model, dosing of the mice begins on the second day of disease (~ Day 11 after disease induction). Mice are scored daily for a decrease in motor function and complete paralysis in the tail and limbs. Histopathology is carried out to score the frequency of inflammatory infiltrates and demyelination in the spinal cord.
The model details and read-outs, and methods are described below. Treatment began two days after disease onset, around day ~11 (mice were enrolled on the second day of disease for each mouse).
Experimental Autoimmune Encephalomyelitis. Female SJL mice (8-10 weeks old) were subcutaneously injected at four sites with myelin proteolipid protein (PLP) 139-151 in CFA emulsion (0.05 mL/injection site; ~0.5 mg PLP PLP139-151/mL; Hooke Laboratories; EK-2120). Following immunization, EAE induction was completed by intraperitoneal injections of pertussis toxin (6 µg/mL; 0.1 mL/mouse) within 2 hours of immunization. Mice were randomized into groups and monitored for EAE clinical score over the course of 42 days. Disease progression was scored blinded of treatment or prior measurements. Disease severity was scored using standard EAE criteria: 0 (normal); 1 (loss of tail tone); 2 (hind limb weakness); 3 (hind limb paralysis); 4 (hind limb paralysis and forelimb paralysis or weakness); 5 (morbidity/death). Mice were observed daily for clinical symptoms.
• Vehicle (anaerobic sucrose buffer) PO QD day ~11 - day 42 • G.I. Strain A 10 mg/dose PO QD day ~11 - day 42 • Fingolimod, 1 mg/kg PO QD day ~11 - day 42 • Fingolimod, 0.1 mg/kg PO QD day ~11 - day 42
G.I. Strain A was prepared as a lyophilized powder and was gamma irradiated prior to use.

[1] = Strain A 10 mg/dose, Fingolimod 1 mg/kg

CCCCCCCCc1ccc(CCC(N)(CO)CO)cc1 [Fingolimod]
MMS ± SD (Fingolimod 0.1 mg/kg): 3.20±0.70
MMS ± SD [1]: 3.13±0.52
Incidence of relapse (%) (Fingolimod 0.1 mg/kg): 28.6%
MMS of relapse period ± SD (Days 18-42) (Fingolimod 0.1 mg/kg): 1.77±1.53
Incidence of relapse (%) [1]: 0%
MMS of relapse period ± SD (Days 18-42) [1]: 0.83±0.67
MMS until Day 17 ± SD (Fingolimod 0.1 mg/kg): 3.13 ± 0.69
MMS until Day 17 ± SD [1]: 3.13±0.52
End % body weight ± SD (Fingolimod 0.1 mg/kg): 95.2±11.1%
End score ± SD (Fingolimod 0.1 mg/kg): 0.97±1.45
End % body weight ± SD [1]: 101.8±12.0%
End score ± SD [1]: 0.10±0.21
